# Values joined by “and” are separate entries in the source; they are usually repeats but may differ in a detail not shown here. Equal values may be shown once. Marks after values point to notes of the source that are not given here.
# Experiments:
# OVA-sensitized mice [1] = experiment: OVA-induced airway constriction (fall of specific airway conductance, SGaw) in mouse model of asthma; assay type: in vivo
# Description: Protocol A: The mice were given three i.p. Injections of 10 μg ovalbumin adsorbed on 2 mg alum on 0, 7 and 14 days and then subjected to OVA aerosol inhalation for five consecutive days from 19th to 23rd day of the experiment. On 24th day SGaw measurements were performed after OVA challenge in the plethysmograph and airway reactivity to methacholine was measured after 24 hours. In case of curative study (Protocol B), sensitized mice were fed with 1 mg/kg body weight of Luteolin for one week (days 26-32) and the effects on SGaw and airway reactivity were evaluated. Mice were immunized/sensitized with or without (sham-sensitized) 0.2 ml of 10 μg ovalbumin (Sigma Chemicals Co. St Louis, Mo., USA) and 2 mg aluminum hydroxide intraperitoneally on days 0,7 and 14 using a modified protocol previously described by Sakai et al (FIG. 2). Five days after the final i.p injection, the mice were subjected to aerosolized OVA (5%) or phosphate buffered saline (PBS) (for sham-sensitized group) inhalation for 20 minutes daily beginning from day 19 to day 23 (FIG. 2). Mice were placed in a plexiglas chamber (20×20×20 cm dimensions) and exposed to an aerosol generated from a nebulizer (de Vilbiss, USA) with airflow of 41/min. To study the preventive effect, Luteolin (dissolved in 50% hydro-alcohol) (Sigma Chemicals Co. St Louis, Mo., USA) (0.1, 1.0, and 10.0 mg/kg body weight, 20 □| volume) or vehicle (i.e., 50% hydro-alcohol) was administered orally to each group of mice daily, starting from the first day of sensitization (FIG. 2A). […] Airway calibre was measured in the term of specific airway conductance (SGaw) using a dual-chamber whole body plethysmograph similar to the method for guinea pigs (Agrawal, 1981) with some modifications. […] The value of SGaw was calculated as described by Agrawal (1981). Airway constriction of mice was determined in terms of fall of SGaw due to OVA aerosol challenge. SGaw was measured as described in Example 3. […]
# OVA-sensitized mice [2] = experiment: Airway reactivity to methacholine (MCh PD35) in mouse model of asthma; assay type: in vivo
# Description: Protocol A: The mice were given three i.p. Injections of 10 μg ovalbumin adsorbed on 2 mg alum on 0, 7 and 14 days and then subjected to OVA aerosol inhalation for five consecutive days from 19th to 23rd day of the experiment. On 24th day SGaw measurements were performed after OVA challenge in the plethysmograph and airway reactivity to methacholine was measured after 24 hours. In case of curative study (Protocol B), sensitized mice were fed with 1 mg/kg body weight of Luteolin for one week (days 26-32) and the effects on SGaw and airway reactivity were evaluated.
# (§1) Mice were immunized/sensitized with or without (sham-sensitized) 0.2 ml of 10 μg ovalbumin (Sigma Chemicals Co. St Louis, Mo., USA) and 2 mg aluminum hydroxide intraperitoneally on days 0,7 and 14 using a modified protocol previously described by Sakai et al (FIG. 2). Five days after the final i.p injection, the mice were subjected to aerosolized OVA (5%) or phosphate buffered saline (PBS) (for sham-sensitized group) inhalation for 20 minutes daily beginning from day 19 to day 23 (FIG. 2). Mice were placed in a plexiglas chamber (20×20×20 cm dimensions) and exposed to an aerosol generated from a nebulizer (de Vilbiss, USA) with airflow of 41/min.
# (§2) To study the preventive effect, Luteolin (dissolved in 50% hydro-alcohol) (Sigma Chemicals Co. St Louis, Mo., USA) (0.1, 1.0, and 10.0 mg/kg body weight, 20 □| volume) or vehicle (i.e., 50% hydro-alcohol) was administered orally to each group of mice daily, starting from the first day of sensitization (FIG. 2A). To study the curative effect, mice were first sensitized as described before (Example 1) followed by oral Luteolin (1.0 mg/kg body weight) treatment daily from day 26 to 32 (FIG. 2B).
# Airway reactivity to methacholine was determined by measuring the concentration of inhaled methacholine that produced 35% fall in SGaw (MCh PD35) in intact mouse sitting in the body plethysmograph. Aerosol of different concentrations of methacholine (3.1, 6.25, 12.5, 50, 100 mg/ml) were given for 60 seconds. MCh PD35 values were determined in sham-sensitized, sensitized and Luteolin treated mice during and after sensitization. […] Treatment with Luteolin (0.1, 1.0 and 10.0 mg/kg during sensitization) markedly attenuated the development of airway hyperreactivity to methacholine. MCh PD35 values increased following Luteolin treatment to 72.1±1.9, 42.4±4.2 and 10.9±4.8 mg/ml, respectively (p<0.01).
# OVA-specific IgE = OVA-specific IgE levels in serum by ELISA; assay type: in vivo, mouse
# Description: (§3) After testing the compound for the preventive as well as for therapeutic effects in intact conscious mice, mice were sacrificed for collecting the blood and bronchoalveolar lavage (BAL) fluid to measure the levels of IgE, cytokines IL-4, IL-5 and IFN-γ. Ovalbumin specific IgE levels in the sera and the levels of IL-4, IL-5 and IFN-γ in the BAL fluid were measured by enzyme linked ImmunoSorbent assay (ELISA) kits.
# as §1, §2
# OVA-specific IgE levels in the serum were measured by enzyme linked ImmunoSorbent assay (ELISA), To investigate the effect of Luteolin on serum IgE levels, we compared the levels of the OVA-specific IgE in serum of mice treated with vehicle or with Luteolin (0.1, 1.0 and 10.0 mg/kg) during sensitization and in sham-sensitized mice.
# IFN-γ = IFN-γ level in BALF by ELISA; assay type: in vivo, mouse; conditions: mean±SEM, n=6
# Description: as §3
# (§4) Experiments were performed with six groups of mice (n=6) as described in FIG. 3 legend and the levels of IFN-γ, IL-4 and IL-5 were measured in the BALF. The values are a mean±SEM of six mice in each group. Mann Whitney U test was used to determine the significant differences between the sensitized- and Luteolin treated groups. * p <0.05, ** p<0.01. ‘a’ denotes treatment during sensitization; ‘b’ denotes treatment after sensitization.
# as §1, §2
# (§5) To investigate the levels of IL-4 and IFN-[…] in the BALF, we measured the cytokine levels by ELISA as per manufacturer's protocol, and compared between the different groups. […] In the Luteolin-treated group, there was an increase in the ratio of IFN-γ/IL-4 (25.8±2.7, 15.5±1.3, 13.2±2.5 following doses of 0.1, 1.0 and 10.0 mg/kg Luteolin, respectively as compared to 0.48±0.1 in sensitized, vehicle treated mice) (p<0.01) (Table 1). […] This increase in the IFN-γ/IL-4 ratio was due to the increase in the IFN-γ levels. We also measured the concentration of IL-5 in the BALF by ELISA in the different groups (Table 1). […]
# IL-4 = IL-4 level in BALF by ELISA; assay type: in vivo, mouse; conditions: mean±SEM, n=6
# Description: as §3, §4, §1, §2, §5
# IL-5 = IL-5 level in BALF by ELISA; assay type: in vivo, mouse; conditions: mean±SEM
# Description: as §3, §4, §1, §2, §5
# OVA-sensitized mice [3] = experiment: Mouse model of asthma, effective oral dose; assay type: in vivo
# Description: In this context, Luteolin was tested on mouse model of asthma. Mice were sensitized with intraperitoneal and aerosol inhalation of OVA to develop the characteristic features of asthma such as allergen induced early airway response (EAR) and late airway response (LAR). These asthmatic features were characterized by measuring airway calibre in the term of specific airway conductance (SGaw) by a non-invasive technique, dual-chamber whole body plethysmography. After developing the characteristic features (EAR and LAR) in mouse, the compound, Luteolin was given orally during whole sensitization period to test the preventive effect on the development of asthmatic features. To examine the therapeutic effect of Luteolin on the asthmatic features, it was fed for one week to mice after sensitization and confirming their asthmatic features.
# as §2
# [4] = 1.0 mg/kg oral for one week after sensitization
# [5] = 1.0 mg/kg oral during sensitization
# [6] = 10.0 mg/kg oral during sensitization
# [7] = 10.0 mg/kg during sensitization
compound,measurement,setting,value
O=c1cc(-c2ccc(O)c(O)c2)oc2cc(O)cc(O)c12 [Luteolin],decrease in SGaw after OVA challenge,"OVA-sensitized mice [1]; 0.1 mg/kg oral daily during sensitization, sensitized vehicle mice 43% fall",7%
same,"OVA-induced decrease in SGaw, curative effect",OVA-sensitized mice [1]; [4],reverse OVA-induced decrease in SGaw
same,reduction of OVA-induced decrease in SGaw at higher doses,"OVA-sensitized mice [1]; 1.0 and 10.0 mg/kg oral daily during sensitization, versus 0.1 mg/kg",did not show any greater reduction
same,MCh PD35,"OVA-sensitized mice [2]; 0.1 mg/kg oral during sensitization, sensitized 1.3±0.5, normal 97±1.0",72.1 ± 1.9 mg/mL
same,MCh PD35,OVA-sensitized mice [2]; [5],42.4 ± 4.2 mg/mL
same,MCh PD35,OVA-sensitized mice [2]; [4],increased significantly
same,MCh PD35,OVA-sensitized mice [2]; [6],10.9 ± 4.8 mg/mL
same,OVA-specific serum IgE level,"OVA-specific IgE; 0.1 mg/kg oral during sensitization, sensitized vehicle 3.3±0.4",0.74±0.4
same,OVA-specific serum IgE level,OVA-specific IgE; [5],0.93±0.03
same,OVA-specific serum IgE level,OVA-specific IgE; 1.0 mg/kg oral for a week after sensitization,2.07±1
same,OVA-specific serum IgE level,OVA-specific IgE; [6],0.97±0.07
same,IFN-γ,IFN-γ; 0.1 mg/kg during sensitization,3533 ± 427** pg/ml
same,IFN-γ,IFN-γ; 1.0 mg/kg after sensitization,2067 ± 233.3** pg/ml
same,IFN-γ,IFN-γ; 1.0 mg/kg during sensitization,2652 ± 114.3** pg/ml
same,IFN-γ,IFN-γ; [7],1247 ± 412.5** pg/ml
same,IL-4,IL-4; 0.1 mg/kg during sensitization,136 ± 4.0 pg/mL
same,IL-4,IL-4; 1.0 mg/kg after sensitization,130 ± 5.0 pg/mL
same,IL-4,IL-4; 1.0 mg/kg during sensitization,169 ± 13.9 pg/mL
same,IL-4,IL-4; [7],128 ± 8.8 pg/mL
same,IL-5,"IL-5; 0.1 mg/kg during sensitization, n=6, 0.1 mg/kg",73.3±13.4 pg/ml and 73 ± 13.4* pg/ml
same,IL-5,"IL-5; 1.0 mg/kg after sensitization (one week), n=6, 1 mg/kg",43.7±2.3 pg/ml and 44 ± 2.3* pg/ml
same,IL-5,"IL-5; 1.0 mg/kg during sensitization, n=6, 1 mg/kg",43.3±3.5 pg/ml and 43 ± 3.5* pg/ml
same,IL-5,"IL-5; 10.0 mg/kg during sensitization, n=6",235 ± 66.4 pg/mL
same,effective dose,OVA-sensitized mice [3],1 mg/kg body weight

# Reference: patent US20040191327A1, “Method of treating and/or preventing asthma using natural compound luteolin” (Council of Scientific and Industrial Research, priority 2003, published 2004)
